Tested on: MCF-7 breast cancer cells
Assay: Microarray gene expression analysis (Agilent whole human genome 4 x 44K; compound vs DMSO, LIMMA log2 fold change)
Type: cell-based

`Oc1cccc(-c2nc(N3CCOCC3)c3oc4ncccc4c3n2)c1` [PI-103] was tested, and the “BCL11B log2FC” value (Apoptosis genes, Gene 64919) was 0.237, the “MRPL41 log2FC” value (Apoptosis genes, Gene 64975) was -0.467 and the “PINK1 log2FC” value (Apoptosis genes, Gene 65018) was 1.918. For the same compound, the “PRAMEF1 log2FC” value (Apoptosis genes, Gene 65121) was 0.050, the “PRAMEF2 log2FC” value (Apoptosis genes, Gene 65122) was 0.021 and the “UBE2Z log2FC” value (Apoptosis genes, Gene 65264) was -0.420. For the same compound, the “TMEM109 log2FC” value (Apoptosis genes, Gene 79073) was -0.554, the “CHAC1 log2FC” value (Apoptosis genes, Gene 79094) was 0.106 and the “TNIP2 log2FC” value (Apoptosis genes, Gene 79155) was -0.233. For the same compound, the “PLEKHF1 log2FC” value (Apoptosis genes, Gene 79156) was -0.466, the “THOC6 log2FC” value (Apoptosis genes, Gene 79228) was -0.153 and the “BCL2L14 log2FC” value (Apoptosis genes, Gene 79370) was -0.153. For the same compound, the “BIRC7 log2FC” value (Apoptosis genes, Gene 79444) was -0.015, the “ELMO3 log2FC” value (Apoptosis genes, Gene 79767) was -0.530 and the “SLTM log2FC” value (Apoptosis genes, Gene 79811) was 0.713. The “ZC3H12A log2FC” value (Apoptosis genes, Gene 80149) was -1.248, the “RNF34 log2FC” value (Apoptosis genes, Gene 80196) was -0.370 and the “ELL3 log2FC” value (Apoptosis genes, Gene 80237) was 1.045. For the same compound, the “CPEB4 log2FC” value (Apoptosis genes, Gene 80315) was 0.553, the “COL18A1 log2FC” value (Apoptosis genes, Gene 80781) was 0.023 and the “SGPP1 log2FC” value (Apoptosis genes, Gene 81537) was -0.248. For the same compound, the “SHARPIN log2FC” value (Apoptosis genes, Gene 81858) was -0.118, the “APH1B log2FC” value (Apoptosis genes, Gene 83464) was -0.243 and the “RASSF5 log2FC” value (Apoptosis genes, Gene 83593) was -0.099. For the same compound, the “SOX7 log2FC” value (Apoptosis genes, Gene 83595) was -0.149, the “BCL2L12 log2FC” value (Apoptosis genes, Gene 83596) was -0.182 and the “ITCH log2FC” value (Apoptosis genes, Gene 83737) was 0.449. The “CDCA7 log2FC” value (Apoptosis genes, Gene 83879) was -0.061, the “TATDN1 log2FC” value (Apoptosis genes, Gene 83940) was 0.554 and the “TM2D1 log2FC” value (Apoptosis genes, Gene 83941) was 0.055. The “OBSCN log2FC” value (Apoptosis genes, Gene 84033) was 0.392, the “TRAF7 log2FC” value (Apoptosis genes, Gene 84231) was -0.080 and the “RHBDD1 log2FC” value (Apoptosis genes, Gene 84236) was -0.425. The “TCHP log2FC” value (Apoptosis genes, Gene 84260) was 0.283, the “ZDHHC16 log2FC” value (Apoptosis genes, Gene 84287) was -0.316 and the “ING5 log2FC” value (Apoptosis genes, Gene 84289) was -0.961. The “AKT1S1 log2FC” value (Apoptosis genes, Gene 84335) was -0.610, the “CARD11 log2FC” value (Apoptosis genes, Gene 84433) was 0.185 and the “SYVN1 log2FC” value (Apoptosis genes, Gene 84447) was 0.495. The “ZC3H8 log2FC” value (Apoptosis genes, Gene 84524) was 1.375, the “FNDC1 log2FC” value (Apoptosis genes, Gene 84624) was -0.079 and the “CARD6 log2FC” value (Apoptosis genes, Gene 84674) was 0.035. The “HINT2 log2FC” value (Apoptosis genes, Gene 84681) was 0.122, the “BEX2 log2FC” value (Apoptosis genes, Gene 84707) was 0.833 and the “TNS4 log2FC” value (Apoptosis genes, Gene 84951) was -1.157. For the same compound, the “ATG4D log2FC” value (Apoptosis genes, Gene 84971) was -0.288, the “SCRT2 log2FC” value (Apoptosis genes, Gene 85508) was -0.600 and the “WNT3A log2FC” value (Apoptosis genes, Gene 89780) was -0.352. The “FGD3 log2FC” value (Apoptosis genes, Gene 89846) was 0.895, the “UNC5A log2FC” value (Apoptosis genes, Gene 90249) was -0.397 and the “BMF log2FC” value (Apoptosis genes, Gene 90427) was 2.201. For the same compound, the “MTDH log2FC” value (Apoptosis genes, Gene 92140) was 0.308, the “TIMM50 log2FC” value (Apoptosis genes, Gene 92609) was -0.337 and the “TP53INP1 log2FC” value (Apoptosis genes, Gene 94241) was 0.890. For the same compound, the “EGLN2 log2FC” value (Apoptosis genes, Gene 112398) was 0.419, the “EGLN3 log2FC” value (Apoptosis genes, Gene 112399) was -0.441 and the “PNMA5 log2FC” value (Apoptosis genes, Gene 114824) was 0.611. For the same compound, the “SLC5A11 log2FC” value (Apoptosis genes, Gene 115584) was 0.170, the “TWIST2 log2FC” value (Apoptosis genes, Gene 117581) was -0.613 and the “RFFL log2FC” value (Apoptosis genes, Gene 117584) was -0.445. The “FGD4 log2FC” value (Apoptosis genes, Gene 121512) was 0.646, the “RXFP2 log2FC” value (Apoptosis genes, Gene 122042) was -0.012 and the “DCUN1D3 log2FC” value (Apoptosis genes, Gene 123879) was -0.855. For the same compound, the “ACVR1C log2FC” value (Apoptosis genes, Gene 130399) was 0.413, the “IL31RA log2FC” value (Apoptosis genes, Gene 133396) was 0.067 and the “JMY log2FC” value (Apoptosis genes, Gene 133746) was 1.008. The “UNC5D log2FC” value (Apoptosis genes, Gene 137970) was 0.036, the “DYNLL2 log2FC” value (Apoptosis genes, Gene 140735) was -0.654 and the “PSMA8 log2FC” value (Apoptosis genes, Gene 143471) was 0.074. The “TICAM1 log2FC” value (Apoptosis genes, Gene 148022) was -0.334, the “BNIPL log2FC” value (Apoptosis genes, Gene 149428) was -0.016 and the “ZSWIM2 log2FC” value (Apoptosis genes, Gene 151112) was -0.00651. For the same compound, the “DAB2IP log2FC” value (Apoptosis genes, Gene 153090) was 0.029, the “SLC5A8 log2FC” value (Apoptosis genes, Gene 160728) was -0.019 and the “PTCRA log2FC” value (Apoptosis genes, Gene 171558) was -0.229. For the same compound, the “HIGD2A log2FC” value (Apoptosis genes, Gene 192286) was -0.188, the “FLCN log2FC” value (Apoptosis genes, Gene 201163) was 0.778 and the “HIPK1 log2FC” value (Apoptosis genes, Gene 204851) was -0.082. The “UNC5B log2FC” value (Apoptosis genes, Gene 219699) was -0.706, the “RNF152 log2FC” value (Apoptosis genes, Gene 220441) was -0.049 and the “FGD2 log2FC” value (Apoptosis genes, Gene 221472) was -0.083. The “MPV17L log2FC” value (Apoptosis genes, Gene 255027) was -0.431, the “TMEM23 log2FC” value (Apoptosis genes, Gene 259230) was 0.281 and the “MAGI3 log2FC” value (Apoptosis genes, Gene 260425) was 0.313. The “BLOC1S2 log2FC” value (Apoptosis genes, Gene 282991) was 0.288, the “NRBP2 log2FC” value (Apoptosis genes, Gene 340371) was -0.00243 and the “NANOS3 log2FC” value (Apoptosis genes, Gene 342977) was 0.015. For the same compound, the “AMIGO2 log2FC” value (Apoptosis genes, Gene 347902) was 0.458, the “C6orf120 log2FC” value (Apoptosis genes, Gene 387263) was -0.573 and the “GDF6 log2FC” value (Apoptosis genes, Gene 392255) was -0.024. The “MYO18A log2FC” value (Apoptosis genes, Gene 399687) was -0.274, the “PRAMEF3 log2FC” value (Apoptosis genes, Gene 401940) was -0.384 and the “ADIPOQ log2FC” value (Apoptosis genes, Gene 414149) was -0.263. The “PIM3 log2FC” value (Apoptosis genes, Gene 415116) was 0.644, the “LGALS7 log2FC” value (Apoptosis genes, Gene 653499) was -0.246 and the “CARD9 log2FC” value (Apoptosis genes, Gene 728489) was -0.430. For the same compound, the “PDCD6 log2FC” value (Apoptosis genes, Gene 728613) was -0.273, the “RRN3 log2FC” value (Apoptosis genes, Gene 730092) was 0.522 and the “CD24 log2FC” value (Apoptosis genes, Gene 100133941) was 0.117. The “ACVR1 log2FC” value (Gene 90, cell cycle genes) was 0.55, the “ACVR1B log2FC” value (Gene 91, cell cycle genes) was -0.21 and the “ADCYAP1 log2FC” value (Gene 116, cell cycle genes) was 0.0422. The “AHR log2FC” value (Gene 196, cell cycle genes) was 0.78, the “AIF1 log2FC” value (Gene 199, cell cycle genes) was -0.0247 and the “AK1 log2FC” value (Gene 203, cell cycle genes) was -0.25. The “AKT1 log2FC” value (Gene 207, cell cycle genes) was -0.58, the “AKT2 log2FC” value (Gene 208, cell cycle genes) was -0.41 and the “ALOX15B log2FC” value (Gene 247, cell cycle genes) was -0.00234. The “ANK3 log2FC” value (Gene 288, cell cycle genes) was 0.62, the “ANXA1 log2FC” value (Gene 301, cell cycle genes) was 0.80 and the “ANXA11 log2FC” value (Gene 311, cell cycle genes) was -0.16. The “APBB1 log2FC” value (Gene 322, cell cycle genes) was 0.36, the “APBB2 log2FC” value (Gene 323, cell cycle genes) was -0.18 and the “APEX1 log2FC” value (Gene 328, cell cycle genes) was 0.12. The “BIRC2 log2FC” value (Gene 329, cell cycle genes) was -0.34, the “APP log2FC” value (Gene 351, cell cycle genes) was 0.33 and the “ARF6 log2FC” value (Gene 382, cell cycle genes) was -0.57. The “RHOB log2FC” value (Gene 388, cell cycle genes) was -0.10, the “RHOC log2FC” value (Gene 389, cell cycle genes) was -0.37 and the “ARL2 log2FC” value (Gene 402, cell cycle genes) was 0.09. The “ARL3 log2FC” value (Gene 403, cell cycle genes) was 0.06, the “ASNS log2FC” value (Gene 440, cell cycle genes) was -0.39 and the “BACH1 log2FC” value (Gene 571, cell cycle genes) was 0.78. For the same compound, the “BARD1 log2FC” value (Gene 580, cell cycle genes) was 0.34, the “BBS4 log2FC” value (Gene 585, cell cycle genes) was 0.84 and the “CCND1 log2FC” value (Gene 595, cell cycle genes) was -1.53. The “BCL2 log2FC” value (Gene 596, cell cycle genes) was -0.34, the “BCL2L1 log2FC” value (Gene 598, cell cycle genes) was -0.92 and the “BCR log2FC” value (Gene 613, cell cycle genes) was -0.81. The “BID log2FC” value (Gene 637, cell cycle genes) was -0.26, the “BMP2 log2FC” value (Gene 650, cell cycle genes) was -0.23 and the “BMP7 log2FC” value (Gene 655, cell cycle genes) was -0.32. The “DST log2FC” value (Gene 667, cell cycle genes) was 0.55, the “BRCA1 log2FC” value (Gene 672, cell cycle genes) was 0.74 and the “BRDT log2FC” value (Gene 676, cell cycle genes) was -0.0232. The “BUB1 log2FC” value (Gene 699, cell cycle genes) was 0.59, the “CALM1 log2FC” value (Gene 801, cell cycle genes) was 0.07 and the “CALR log2FC” value (Gene 811, cell cycle genes) was -0.16. For the same compound, the “CAMK2A log2FC” value (Gene 815, cell cycle genes) was 0.03, the “CAMK2D log2FC” value (Gene 817, cell cycle genes) was 0.78 and the “CAMK2G log2FC” value (Gene 818, cell cycle genes) was 0.66. The “CASP2 log2FC” value (Gene 835, cell cycle genes) was -0.76, the “CAV2 log2FC” value (Gene 858, cell cycle genes) was 0.93 and the “RUNX3 log2FC” value (Gene 864, cell cycle genes) was -0.36. For the same compound, the “CCNA2 log2FC” value (Gene 890, cell cycle genes) was -0.08, the “CCNB1 log2FC” value (Gene 891, cell cycle genes) was -0.13 and the “CCNC log2FC” value (Gene 892, cell cycle genes) was -0.10. The “CCND2 log2FC” value (Gene 894, cell cycle genes) was -1.30, the “CCND3 log2FC” value (Gene 896, cell cycle genes) was -0.73 and the “CCNE1 log2FC” value (Gene 898, cell cycle genes) was -0.63. The “CCNG1 log2FC” value (Gene 900, cell cycle genes) was 0.46, the “CCNG2 log2FC” value (Gene 901, cell cycle genes) was 3.91 and the “CD28 log2FC” value (Gene 940, cell cycle genes) was 0.0361. The “CDC5L log2FC” value (Gene 988, cell cycle genes) was 0.88, the “CDC6 log2FC” value (Gene 990, cell cycle genes) was -0.98 and the “CDC20 log2FC” value (Gene 991, cell cycle genes) was -0.31. For the same compound, the “CDC25A log2FC” value (Gene 993, cell cycle genes) was -2.03.

Source: paper PMC4303209, “A novel phosphatidylinositol 3-kinase (PI3K) inhibitor directs a potent FOXO-dependent, p53-independent cell cycle arrest phenotype characterized by the differential induction of a subset of FOXO-regulated genes” (Breast Cancer Research : BCR, 2014)
